According to publication PMC6394990, “Detailed characterization of the solution kinetics and thermodynamics of biotin, biocytin and HABA binding to avidin and streptavidin” (PLoS ONE, 2019):
“And” between values parts separate entries of the source, which are not always exact repeats. Equal values may be shown once. Read-outs that look alike come from different tables or passages of the source.

Experiments:
streptavidin (SAV) [1] = biological target: T1, streptavidin (SAV) (Streptomyces avidinii, UniProt P22629); assay: Absorbance and fluorescence emission spectra, SAV complex; assay type: physicochemical
T1 construct: purchased Sigma Aldrich (St. Louis, MO)
T1 sequence (P22629 25-183): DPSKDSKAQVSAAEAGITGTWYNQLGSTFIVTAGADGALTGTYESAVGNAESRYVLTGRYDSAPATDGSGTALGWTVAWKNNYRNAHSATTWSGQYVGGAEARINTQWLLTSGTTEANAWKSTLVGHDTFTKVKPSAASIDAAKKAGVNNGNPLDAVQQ
Procedure: The lifetimes (τ), steady state anisotropies (rss), time-resolved anisotropies (rt) and quantum yields (QY) of the complexes (at 20 ± 0.1°C and pH 8) were collected with a dye-labeled B7 probe concentration of 20–40 nM and 1040–2080 nM of either protein (AV or SAV) to ensure that only one binding site in the tetramer was filled with a ligand (AB1 filling model).
The QY values were obtained by using a reference fluorophore of known quantum yield and were calculated according to Parker and Rees, where the reference dye was fluorescein in 0.1N sodium hydroxide solution [46]. The emission fluorescence scans were collected from 480 nm to 700 nm with the excitation light set at 460 nm provided by the xenon arc lamp described above. These measurements were made on the AB1 complexes at high protein concentration.
Supplementary file pone.0204194.s001.docx: S1 Fig Absorbance spectra of dye-labeled B7 probes and respective complexes with AV and SAV. […] The spectra are normalized to the calculated molar absorptivies. The distortion of the SAV-BFl absorbance spectrum (B panel) is caused by the presence of Fl^2- and Fl^1-. The labeled probes and protein concentrations were 1 μM and 10 μM, respectively. (DOCX) Click here for additional data file.
Supplementary file pone.0204194.s002.docx: S2 Fig Fluorescence emission spectra of dye-labeled B7 and respective complexes with AV and SAV. […] The probe and protein concentrations were 20 nM and 1040 nM (AB1 filling model), respectively. (DOCX) Click here for additional data file.

streptavidin (SAV) [2] = biological target: T1, streptavidin (SAV); assay: Literature kinetics, affinity and dissociation (backward) activation parameters; assay type: binding; settings: SAV-B7, average of the reported values
streptavidin (SAV) [3] = biological target: T1, streptavidin (SAV); settings: cited from earlier work
avidin (AV) [4] = biological target: T2, avidin (AV) (Gallus gallus, UniProt P02701); settings: cited from earlier work; for ΔG° ^ǂ, Backward / ΔS° ^ǂ, Backward: calculated from the plotted data; for Ea^Backward: ref 18
T2 construct: purchased Calbiochem (La Jolla, CA)
T2 sequence (P02701 25-152): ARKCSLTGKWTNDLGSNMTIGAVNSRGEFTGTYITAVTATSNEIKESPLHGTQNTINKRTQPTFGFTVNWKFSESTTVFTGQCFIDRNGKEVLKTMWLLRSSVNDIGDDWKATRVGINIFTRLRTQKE

streptavidin (SAV) [5] = biological target: T1, streptavidin (SAV); settings: SAV-B7, cited from earlier work
avidin (AV) [6] = biological target: T2, avidin (AV); assay: Relaxation kinetics of unlabeled biotin reacting with the AV-HABA complex; assay type: binding; settings: pH 8 and 23°C; read-out: konB, association rate of unlabeled B7 to the final site (AV-HABA3)
Procedure: All of the following protein concentrations are presented on a binding site basis, thus in the case of the HABA association reactions for AV were measured at 23.0 ± 0.1°C with a concentration of 87 μM HABA and 7.7 μM AV. The AV-HABA relaxation reactions were conducted with a preformed AV-HABA complex made up of 200 μM HABA and 10 μM AV, flowed against varying amounts of B7 from 100 μM up to 4000 μM for a [HABA]/[B7] ratio that ranged from 0.05 to 2.
The relaxation experiments were prepared at concentrations in which HABA occupies all sites (AV-HABA4). Biotin replaces HABA relative to the koff of the dye as shown for the first step (Eq 1) and then repeated for all sites. Having greater affinity, B7 occupies all sites at the end of the reaction and the measured kon is related to the affinities of the ligand bound protein.
The reaction is monitored by the HABA absorbance changes at 500 nm as it is replaced by unlabeled B7; yielding the relaxation constant of the reaction (Relaxation, Eq 2) which contains information of the B7 association rate constant of the open binding site, k1AV−HABA3 to form a full saturated complex (AV-HABA4) and the dissociation rate of that full complex, k−1AV−HABA4 , to yield a complex with three HABA molecules (AV-HABA3). In the subsequent steps, B7 replaces HABA as the ligand but the release of HABA creates an unoccupied site that remains in the same state. In summary, the experiment was designed to acquire the pseudo-first order association rate constant of B7 binding ( konB ) to the solely free binding site in a complex occupied by three HABA molecules (AV-HABA3).
The reciprocal of the relaxation constant (1/Relaxation) is plotted vs. the [HABA]/[B] concentration ratio (Eq 3) allowing to calculate: k−1AV−HABA4 and k1AV−HABA3 by solving for the intercept ( 1/k−1AV−HABA4 ) and the respective slope: m=k1AV−HABA3/(k−1AV−HABA4∙konB) . The exponential decays were analyzed by the method of Foss. There was no departure from simple first order decay in the relaxation, justifying the use of the following model and equations.

streptavidin (SAV) [7] = biological target: T1, streptavidin (SAV); assay: Literature calorimetry reaction thermodynamics; assay type: binding; settings: SAV-B7, average of the reported values
[8] = SAV complex, mono-ionic fluorescein species

With `O=C(CCCC[C@@H]1SC[C@@H]2NC(=O)N[C@@H]21)NCCNC(=O)c1ccc(-c2c3ccc(=O)cc-3oc3cc(O)ccc23)c(C(=O)O)c1` [BFl, Biotin-4-fluorescein] the “Maximum Absorbance” value (streptavidin (SAV) [1]; SAV complex, di-ionic fluorescein species) was 494 nm, the “Maximum Absorbance” value (streptavidin (SAV) [1]; [8]) was 472 nm and the “Maximum Emission” value (streptavidin (SAV) [1]; [8]) was 515 nm. The “Emission (nm)” value (streptavidin (SAV) [1]; complex with SAV) was 524 nm.

In the case of `O=C(O)CCCC[C@@H]1SC[C@@H]2NC(=O)N[C@@H]21` [B7, d-biotin], the “Ea^Backward, averaged value” (streptavidin (SAV) [2]) is reported as 29.4 ± 2.6 kcal/mol and 29.4 kcal/mol, the “ΔG° ^ǂ, Backward, averaged value” (streptavidin (SAV) [2]) is reported as 23.6 ± 1.5 kcal/mol and 23.6 kcal/mol and the “ΔS° ^ǂ, Backward, averaged value” (streptavidin (SAV) [2]) is reported as 24.8 ± 4.5 cal/mol°K and 24.8 cal/mol°K. For the same compound, the “ΔG° ^ǂ, Backward, averaged value” (streptavidin (SAV) [2]; listed as B) was 23.6 ± 1.0 kcal/mol, the “ΔS° ^ǂ, Backward, averaged value” (streptavidin (SAV) [2]; listed as B) was 24.8 ± 2.5 cal/mol°K and the “ΔG° ^ǂ, Backward” value (streptavidin (SAV) [3]; SAV-B7, calculated at 25°C) was 24.8 ± 0.3 kcal/mol and 24.8 ± 0.3 80,f kcal/mol. For the same compound, the “ΔG° ^ǂ, Backward” value (streptavidin (SAV) [3]; SAV-B7, calculated at 25°C, listed as B) was 24.8 ± 0.3 53,b kcal/mol, the “ΔS° ^ǂ, Backward” value (streptavidin (SAV) [3]; SAV-B7, calculated from the plotted data) was 29.9 ± 2.0 cal/mol°K and 29.9 ± 2.0 18 e cal/mol°K and the “ΔS° ^ǂ, Backward” value (streptavidin (SAV) [3]; SAV-B7, calculated from the plotted data, listed as B) was 29.9 ± 2.0 6,a cal/mol°K. For the same compound, the “ΔS° ^ǂ, Backward” value (streptavidin (SAV) [3]; SAV-B7, ref 39, 80, 82) was 18.8 ± 0.3 cal/mol°K and 18.8 ± 0.3 36,80,81 cal/mol°K, the “ΔS° ^ǂ, Backward” value (streptavidin (SAV) [3]; SAV-B7, ref 39, 80, 82, listed as B) was 18.8 ± 0.3 20, 53, 55 cal/mol°K and the “Ea^Backward” value (streptavidin (SAV) [3]; SAV-B7, ref 39, 80) was 30.4 ± 0.2 kcal/mol and 30.4 ± 0.2 36,80 kcal/mol. For the same compound, the “Ea^Backward” value (streptavidin (SAV) [3]; SAV-B7, ref 39, 80, listed as B) was 30.4 ± 0.2 20, 53 kcal/mol, the “ΔG° ^ǂ, Backward” value (streptavidin (SAV) [3]; SAV-B7, ref 39, 82) was 24.6 ± 0.3 kcal/mol and 24.6 ± 0.3 36,81 kcal/mol and the “ΔG° ^ǂ, Backward” value (streptavidin (SAV) [3]; SAV-B7, ref 39, 82, listed as B) was 24.6 ± 0.3 20, 55 kcal/mol. The “ΔG° ^ǂ, Backward” value (streptavidin (SAV) [3]; SAV-B7, ref 47) was 21.4 ± 2.0 kcal/mol and 21.4 ± 2.0 44 kcal/mol, the “ΔG° ^ǂ, Backward” value (streptavidin (SAV) [3]; SAV-B7, ref 47, listed as B) was 21.4 ± 1.0 6 kcal/mol and the koff replacement (streptavidin (SAV) [3]; SAV-B7, ref 68) was 2.4e-06 s⁻¹. The “Ea^Backward” value (streptavidin (SAV) [3]; SAV-B7, ref 81) was 32.0 kcal/mol and 32 kcal/mol, the “ΔS° ^ǂ, Backward” value (streptavidin (SAV) [3]; SAV-B7, ref 81) was 25.8 cal/mol°K and 25.8 82 cal/mol°K and the “Ea^Backward” value (streptavidin (SAV) [3]; SAV-B7, ref 81, listed as B) was 32.0 56 kcal/mol. For the same compound, the “ΔS° ^ǂ, Backward” value (streptavidin (SAV) [3]; SAV-B7, ref 81, listed as B) was 25.8 56 cal/mol°K, the “Ea^Backward” value (streptavidin (SAV) [3]; SAV-B7, ref 82) was 25.8 ± 1.2 kcal/mol and 25.8 ± 1.2 81 kcal/mol and the “Ea^Backward” value (streptavidin (SAV) [3]; SAV-B7, ref 82, listed as B) was 25.8 ± 1.2 55 kcal/mol. The kon (streptavidin (SAV) [3]; SPR, immobilized B7, 4°C) was 5.1e+06 M⁻¹ s⁻¹, the kon (streptavidin (SAV) [3]; stopped-flow, tryptophan fluorescence quenching, 25°C and pH 7) was 7.5 ± 0.6 × 10^7 M^-1s^-1 and the “ΔG° ^ǂ, Backward” value (avidin (AV) [4]; AV-B7) was 24.7 ± 2.0 [18]^e kcal/mol and 24.7 kcal/mol. The “ΔS° ^ǂ, Backward” value (avidin (AV) [4]; AV-B7) was 43.0 ± 2.0 [18]^e cal/mol°K and 43 cal/mol°K, the “ΔG° ^ǂ, Backward” value (avidin (AV) [4]; AV-B7, listed as B) was 24.7 ± 1.0 6,a kcal/mol and the “ΔS° ^ǂ, Backward” value (avidin (AV) [4]; AV-B7, listed as B) was 43.0 ± 2.0 6,a cal/mol°K. The “Ea^Backward” value (avidin (AV) [4]; AV-B7) was 37.6 ± 2.0 [18] kcal/mol and 37.6 kcal/mol, the “Ea^Backward” value (avidin (AV) [4]; AV-B7, listed as B) was 37.6 ± 1.0 6,a kcal/mol and the koff replacement (avidin (AV) [4]; AV-B7, ref 35) was 9e-08 s⁻¹. For the same compound, the kon (avidin (AV) [4]; Surface Plasmon Resonance, 20°C, pH 7.4 in HEPES buffer) was 2.0 ± 0.3 × 10^6 M^-1s^-1, the “half-life of the AV-B7 complex” value (avidin (AV) [4]) was 90 days and the kon (avidin (AV) [4]; pH 5 and 25°C, 14C-biotin quenching experiment) was 7e+07 M⁻¹ s⁻¹. For the same compound, the “ΔH°rxn” value (streptavidin (SAV) [5]; ref 19) was -26.7 19 kcal/mol, the “ΔH°rxn” value (streptavidin (SAV) [5]; ref 19, listed as B) was -26.7 6 kcal/mol and the “ΔG°rxn” value (streptavidin (SAV) [5]; ref 39) was -18.1 kcal/mol and -18.1 36 kcal/mol. The “ΔH°rxn” value (streptavidin (SAV) [5]; ref 39) was -24.5 kcal/mol and -24.5 36 kcal/mol, the “ΔS°rxn” value (streptavidin (SAV) [5]; ref 39) was -21.0 [39] cal/mol°K and -21.0 36 cal/mol°K and the “ΔG°rxn” value (streptavidin (SAV) [5]; ref 39, listed as B) was -18.1 20 kcal/mol. The “ΔH°rxn” value (streptavidin (SAV) [5]; ref 39, listed as B) was -24.5 20 kcal/mol, the “ΔS°rxn” value (streptavidin (SAV) [5]; ref 39, listed as B) was -21.0 20 cal/mol°K and the “ΔH°rxn” value (streptavidin (SAV) [5]; ref 79) was -23.0 kcal/mol and -23.0 72 kcal/mol. For the same compound, the “ΔH°rxn” value (streptavidin (SAV) [5]; ref 79, listed as B) was -23.0 50 kcal/mol, the “ΔH°rxn” value (streptavidin (SAV) [5]; ref 80) was -24.9 ± 0.4 kcal/mol and -24.9 ± 0.4 80 kcal/mol and the “ΔH°rxn” value (streptavidin (SAV) [5]; ref 80, listed as B) was -24.9 ± 0.4 53 kcal/mol. For the same compound, the “ΔG°rxn” value (streptavidin (SAV) [5]; ref 83, 84) was -18.3 kcal/mol and -18.3 83,84 kcal/mol, the “ΔG°rxn” value (streptavidin (SAV) [5]; ref 83, 84, listed as B) was -18.3 54, 57 kcal/mol and the kon (avidin (AV) [6]) was 5.3e+06 ± 9e+11 M⁻¹ s⁻¹. The “ΔG°rxn, averaged value” (streptavidin (SAV) [7]) was -18.2 ± 0.2 kcal/mol, the “ΔH°rxn, averaged value” (streptavidin (SAV) [7]) was -24.8 ± 2.0 kcal/mol and the “ΔG°rxn, averaged value” (streptavidin (SAV) [7]; listed as B) was -18.2 ± 0.1 kcal/mol.
